# Measurements reported in PMC3958746 (FEBS Open Bio, 2014).
# Biological target: core histone octamer (Homo sapiens, UniProt P0C0S8+P62805+P62807+P68431)
# Assay: intrinsic histone fluorescence quenching titration
# Assay type: binding
smiles,measurement,value
"CC[n+]1c(-c2ccccc2)c2cc(N)ccc2c2ccc(N)cc21 [EB, ethidium bromide]",Kd,7.7 ± 0.1 µM
